From patent US9421237B2, “Tripeptide boronic acid or boronic ester, preparative method and use thereof” (PEKING UNIVERSITY, priority 2009, dated 2016)

Assays:
[1] = test system: murine H22 cells; test: In vivo anti-tumor activity, H22 tumor in ICR mice, oral administration; conditions: for Animal numbers Start/End / Body weight (g) (X ± SD): ICR mice with H22; for Inhibition rate (%) / Tumor weight (g) (X ± SD): tumors weighed at 12th day
Method: Animal: ICR mice, half male and half female (18-22 g), provided by Laboratory Animal Science Department of Peking Medical University.
Tumor cell strain: murine H22 cells were provided by cell bank of pharmacological group of the State Key Laboratory of Natural and Biomimetic Drugs.
Method: Murine tumor cells were taken to be treated, and diluted to 5×10^6 cells/ml after treatment. The diluted tumor cells solution was inoculated to the left forelimb oxter of the mice with 0.2 ml/mouse under aseptic condition. 24 h after inoculation, the mice were divided into groups and orally administered once per day to the mice in each group for 10 days. At the 12th day, the tumors were peeled off and weighed, and the average weight of the tumor, standard deviation (SD) and p-value of each group were calculated.

[2] = test system: HL-60, BXPC-3, U266 and BGC-823 cells; test: In vitro anti-tumor activity (IC50), summary over the four tumor cell lines; type: cell-based
From the text: According to the results of aforementioned preliminary anti-tumor activities screening tests, those compounds which have better anti-tumor activities were selected to measure their IC50 values on four types of tumor cell lines: HL-60 (promyelocytic leukemia cell strain), BXPC-3 (human pancreatic cancer cell strain), U266 (multiple myeloma cell strain) and BGC-823 (human gastric carcinoma cell strain). HL-60, BXPC-3 and U266 were obtained from the American Type Culture Collection (Manassas, Va.), and BGC-823 (human gastric carcinoma cell strain) was obtained from China Pharmaceutical University.
Test methods: HL-60 cells were cultured in IMDM medium containing 20% fetal bovine serum at 37° C. in 5% CO2; BGC-823 cells and BXPC-3 cells were cultured in RPMI1640 medium containing 10% fetal bovine serum at 37° C. in 5% CO2; U266 cells were cultured in RPMI1640 medium containing 15% fetal bovine serum at 37° C. in 5% CO2.
The cell growth was measured by the standard MTT method. […] The precipitates were dissolved in 100 μL of DMSO, and absorbance was read with an Infinite M200 (Tecan, Austria) microplate reader at 540 nm.
The result was expressed as IC50 value, which is the average value of three independent determinations.

[3] = 1 mg/kg orally once per day for 10 days
[4] = 2 mg/kg orally once per day for 10 days

Row | Compound | melting point [°C] | Animal numbers Start/End [1, 3] | Body weight (g) (X ± SD) [1, 3] | Inhibition rate (%) [1, 3] [%] | Tumor weight (g) (X ± SD) [1, 3] | Animal numbers Start/End [1, 4] | Body weight (g) (X ± SD) [1, 4] | Inhibition rate (%) [1, 4] [%] | Tumor weight (g) (X ± SD) [1, 4] | Inhibition of growth of three types of cells, compared with PS341 [2] | Toxicity in the in vivo anti-tumor test, compared with bortezomib (PS341) ([1]; ICR mice with H22, oral)
1 | CC(C)C[C@H](NC(=O)[C@H](Cc1ccc2ccccc2c1)NC(=O)[C@H](CC(C)C)NC(=O)c1cnccn1)B(O)O [Compound 6f, N-pyrazineformyl-L-leucyl-L-naphthylalanyl-L-leucine Boronic Acid] | 157 to 159 | 8/6 | 1.49 ± 1.07 | 51.67 | 0.60 ± 0.16 | 8/5 | 0.04 ± 4.29 | 55.34 | 0.56 ± 0.17 | better than those of PS341 | 
2 | CC(C)C[C@H](NC(=O)[C@H](Cc1ccc2ccccc2c1)NC(=O)[C@H](Cc1ccccc1)NC(=O)c1cnccn1)B(O)O [Compound 6g, N-pyrazineformyl-L-phenylalanyl-L-naphthylalanyl-L-leucine Boronic Acid] |  | 8/8 | -1.28 ± 2.83 | 34.24 | 0.82 ± 0.36 | 8/8 | -0.53 ± 2.58 | 56.33 | 0.54 ± 0.28 |  | even lower
